Measured values reported in patent publication US20050233991A1, “Methods and compositions for the identification, assessment, and therapy of small cell lung cancer” (priority 2002, published 2005).
Values belong to the compound of their own block, whether it stands above or below them.

Legend:
[1] = test system: NCI-H69 cells; experiment: Cell viability assay (trypan blue dye exclusion); assay type: cell-based, human; settings: 100 ng/ml; for increase in viable cell number: 10% FCS, 72 hours; for effect on cell survival: without serum
Procedure: Ten small cell lung cancer (SCLC) cell lines (NCI-H69, NCI-H82, NCI-H128, NCI-H146, NCI-H209, NCI-H249, NCI-H345, NCI-H446, NCI-H510, and NCI-H526) were purchased from the American Type Culture Collection (Rockville, Md.) and maintained in RPMI 1640 medium (Cellgro) supplemented with 10% (v/v) fetal calf serum (FCS). MO7e cells were maintained as described in Sattler, M. et al. (1997) J. Biol. Chem. 272:10248-53. All cell lines were incubated at 37° C. in a 5% CO2 humidified atmosphere and harvested during log phase growth. Cells were deprived of growth factors by incubation in RPMI 1640 medium containing 0.5% (w/v) bovine serum albumin (BSA) (Sigma, St. Louis, Mo.) for 18 hours. In some experiments, cells were treated with 5 μM STI571 (Gleevec™, Novartis Pharmaceuticals, Basel, Switzerland) or 25 μM LY294002 (Sigma).
Viable cells were counted by trypan blue dye exclusion test every 24 hours up to 72 hours. Data was plotted as the mean±SD from three independent experiments. Student's t test was used for the statistical analysis of viable cell number under individual conditions. Differences were considered statistically significant at p<0.05.

[2] = test system: NCI-H69 cells; experiment: Phase contrast microscopy of morphological changes with SDF-1α, SCF and STI571; assay type: cell-based, human; settings: for morphological change of NCI-H69 cells in response to ligand: 100 ng/ml, pictures after 8 hours
Procedure: (§1) Phase-contrast photomicrographs were taken at various time points (0, 1, 2, 4, 8, and 24 hours). For LY294002 studies, starved NCI-H446 cells (1×10^6) were resuspended in serum free media and placed onto a 35 mm tissue culture dish (Becton Dickinson Labware).
It has not been shown previously that there is a functional interaction between CXCR4 and c-Kit in SCLC. […] Phase-contrast microscopy pictures were then taken after 8 hours. Morphological changes began to be apparent at 4 hours, and the changes plateaued between 8 and 24 hours. […] Inhibition of the active c-Kit receptor by STI571 may lead to the inhibition of other active receptors such as CXCR4.

[3] = test system: Akt and p70 S6 kinase; experiment: Immunoblotting of Akt and p70 S6 kinase phosphorylation; assay type: cell-based, human; settings: for time to phosphorylation of Akt (Ser 473) and p70 S6 kinase (Thr 389): 50 ng/ml, serum starved NCI-H69 cells
Procedure: (§2) Cells were lysed in lysis buffer (20 mM Tris pH 8.0, 150 mM NaCl, 10% glycerol, 1% NP-40, 0.42% NaF) containing protease inhibitors (1 mM PMSF, 1 mM Na3VO4, 5 μg/ml aprotinin, 5 μg/ml leupeptin). Cell lysates were separated by 7.5% SDS-PAGE under reducing conditions and transferred to nitrocellulose membranes (Schleicher & Schuell, Dassel, Germany). Proteins were detected by immunoblotting using an enhanced chemiluminescence technique (NEN Life Science Products, Mass.). Rabbit polyclonal antibodies against c-Kit (C-19; Santa Cruz Biotechnology, Inc., Santa Cruz, Calif.), Akt, Akt (pSer 473), Akt (pThr 308), p70 S6 kinase, and p70 S6 kinase (pThr 389) (Cell Signaling Technology, Inc., Beverly, Mass.) and monoclonal antibodies against […]-actin (AC-15; Sigma, St. Louis, Mo.) and phosphotyrosine (4G10, UBI, Lake Placid, N.Y.) were used.
(§3) The activity of the PI3-K downstream targets Akt and p70 S6 kinase is regulated through critical serine/threonine (Ser/The) residues (Franke, T. F. et al. (1997) Cell 88:435-7; Pullen, N. and Thomas, G. (1997) FEBS Lett 410:78-82). […] Cell lysates were applied to a 7.5% SDS-PAGE gel and transferred to nitrocellulose membrane. The membrane was probed with monoclonal antibodies against phosphotyrosine (4G10) and β-actin and polyclonal antibodies against Akt (pSer 473) and p70 S6 kinase (S6K) (pThr 389). […] On the other hand, maximal tyrosine phosphorylation of proteins at 60-90 kDa and 110-145 kDa occurred within 2.5-7.5 minutes in response to SCF.
Lysates were processed as described above in Example 6, and the membrane was probed with the phospho-specific or regular antibodies against Akt and p70 S6 kinase, as well as with an anti-c-Kit antibody. […] The expression levels of Akt, p70 S6 kinase, and c-Kit were not affected by any of these treatments.

[4] = test system: tyrosine phosphorylation of cellular proteins in NCI-H69 cells; experiment: Immunoblotting of tyrosine phosphorylation of cellular proteins (4G10); assay type: cell-based, human
Procedure: as §2, §3

[5] = test system: NCI-H446 cells; experiment: Phase contrast microscopy of SDF-1α induced adhesion/morphology with LY294002; assay type: cell-based, human; settings: SDF-1α 100 ng/ml, 24 hour time point
Procedure: as §1
Phase-contrast microscopy pictures were taken at the 24 hour time point. Most of the untreated cells kept their rounded shape and formed clusters, and nearly half of them attached weakly to the bottom of the dish.

[6] = biological target: human c-Kit (human); experiment: cell-based or functional assay

Compound: SCF: Recombinant human stem cell factor, natural ligand of c-Kit
increase in viable cell number [1]: 16.5% | cell proliferation induced, as compared with untreated control ([1]; media containing 10% FCS, 48 hours): 21.5% | effect on cell survival [1]: neither SCF nor SDF-1α showed any effect | morphological change of NCI-H69 cells in response to ligand [2]: Neurite like actin formations were observed | time to phosphorylation of Akt (Ser 473) and p70 S6 kinase (Thr 389) [3]: ≤ 2.5 min | concentration giving optimal phosphorylation of cellular proteins (dose-response studies) ([4]; NCI-H69 cells): ≥ 10 ng/mL | time of maximal tyrosine phosphorylation of proteins at 60-90 kDa and 110-145 kDa ([4]; SCF 50 ng/ml, serum starved NCI-H69 cells): 2.5-7.5 minutes

Compound: SDF-1α: Recombinant human SDF-1α, natural ligand for CXCR4, member of the CXC chemokine family
increase in viable cell number [1]: 15.5% | effect on cell survival [1]: neither SCF nor SDF-1α showed any effect | morphological change of NCI-H69 cells in response to ligand [2]: more apparent as projections | adhesion and morphology of cells with SDF-1α [5]: almost all cells tightly adhered to the bottom of the dish and neurite like projections were induced in many cells | time to phosphorylation of Akt (Ser 473) and p70 S6 kinase (Thr 389) [3]: ≤ 5 min | time to tyrosine phosphorylated bands between 70-120 kDa ([4]; SDF-1α 50 ng/ml, serum starved NCI-H69 cells): ≤ 15 min

Compound: O=c1cc(N2CCOCC2)oc2c(-c3ccccc3)cccc12 [LY294002, reference compound]
cells floating with rounded shapes in spite of SDF-1α treatment ([5]; LY294002 25 μM): more than 90%

Further lines, with some results ahead:

effect of pre-treatment on SCF induced phosphorylation of Akt and p70 S6 kinase ([3]; STI571 5 μM or LY294002 25 μM overnight, then 50 ng/ml SCF 15 minutes, NCI-H69 cells): inhibited
Compound: Cc1ccc(NC(=O)c2ccc(CN3CCN(C)CC3)cc2)cc1Nc1nccc(-c2cccnc2)n1 [STI571]
inhibition of the morphological changes ([2]; STI571 5 μM): only in the presence of SCF | neurite like projections induced by SDF-1α alone in the presence of STI571 ([2]; STI571 5 μM, SDF-1α 100 ng/ml): still formed | neurite like structures in STI571 treated cells stimulated with both SDF-1α and SCF ([2]; STI571 5 μM, SDF-1α 100 ng/ml and SCF 100 ng/ml): could not form any neurite like structures

concentration for optimal phosphorylation of cellular proteins in NCI-H69 cells (immunoblot, dose-response) [6]: 10 ng/mL | time to phosphorylation of Akt (Ser 473) and p70 S6 kinase (Thr 389) in NCI-H69 cells, 50 ng/ml SCF [6]: < 2.5 min
Compound: Recombinant human SCF (stem cell factor) (from UniProt P21583 26-189) (ligand)
cell proliferation of NCI-H69 cells (viable cell count, trypan blue), 10% FCS, 100 ng/ml SCF, 48 hours, increase compared with untreated control [6]: 21.5%
